Values of other authors in US9937141B2, “Carcinoma diagnosis and treatment, based on ODC1 genotype” (The Arizona Board of Regents on Behalf of the University of …, priority 2009, dated 2018).

Legend:
[1] = test system: tumor putrescine; settings: DFMO infusion, without suppressing peripheral platelet counts
[2] = test system: COX
[3] = human, in vivo
[4] = test system: prostoglandin E2 (PGE2); settings: 300 mg/day, one month

NCCCC(N)(C(=O)O)C(F)F (racemic) [DFMO, 2-(difluoromethyl)-dl-ornithine]
decrease in tumor putrescine levels [1]: 90%

CC1=C(CC(=O)O)c2cc(F)ccc2/C1=C\c1ccc(S(C)(=O)=O)cc1 [Sulindac sulfone]
COX-inhibitory activity [2]: lacks COX-inhibitory activity

CC1=C(CC(=O)O)c2cc(F)ccc2/C1=C\c1ccc([S+](C)[O-])cc1 (stereo not shown) [Sulindac, (Z)-5-fluoro-2-methyl-1-((4 (methylsulfin-yl)phenyl)methylene) 1H-indene-3-acetic acid]
time to peak plasma levels (fasting patients): about 2 hours
drug absorbed after oral administration (oral): about 90%
Skin rash and pruritus, patients affected [3]: 5%
mild gastrointestinal effects, patients affected [3]: ~20%

CC(C)Cc1ccc(C(C)C(=O)O)cc1 (stereo not shown) [ibuprofen]
PGE2 levels in flat mucosa [4]: significant decrease
